Reference: ChEMBL document CHEMBL1201862, “PubChem BioAssay data set” (2004)
Activity calls are given as the source filed them.

What was measured:
[1] = molecular target: T1, E3 ubiquitin-protein ligase XIAP (Homo sapiens, UniProt P98170); assay: small molecules displacing peptide from XIAP – biochemical, IAP family, fluorescence polarization (AID 1018); type: functional
[2] = molecular target: T1, E3 ubiquitin-protein ligase XIAP; assay: Counter Screen using XIAP-Bir3 for Chemical Antagonists of Bir1/2 domains of IAP-family anti-apoptotic proteins. [Related pubchem assays (depositor defined):AID1018, AID1449, AID1514, AID1638, AID1749, AID1750, AID488957, AID488963]
Troponin, cardiac muscle = Troponin, cardiac muscle (Homo sapiens, UniProt P19429+P45379+P63316); assay: Fluorescence-based biochemical high throughput dose response assay for activators of the calcium sensitivity of cardiac Regulated Thin Filaments (RTF). [Related pubchem assays (depositor defined):AID493008, AID493018, AID504382, AID504383]; type: protein-complex assay
SUMO-activating enzyme [3] = molecular target: T2, SUMO-activating enzyme (Homo sapiens, UniProt Q9UBT2); assay: blockers of SAE1/SAE2–UBC9 SUMO transfer – biochemical, HTRF, uHTS, primary screen (AID 2006); type: protein-complex assay
SUMO-activating enzyme [4] = molecular target: T2, SUMO-activating enzyme; assay: blockers of UBC9-mediated SUMO conjugation – biochemical, AlphaScreen, SUMOylation inhibitor project, confirmation (AID 2018); type: functional
HEK293 [5] = assay: NOD2 signaling inhibitors in MDP-stimulated cells, cell-based, uHTS, luminescence (AID 2001); type: functional; conditions: Homo sapiens
HEK293 [6] = assay: cells; type: functional, cell-based; conditions: Homo sapiens
HEK293 [7] = assay: cells; type: functional, cell-based; conditions: Homo sapiens; remark: listed apart in the source
HEK293 [8] = assay: cells; type: functional, cell-based; conditions: Homo sapiens; remark: listed apart in the source
H9c2 = assay: cells; type: functional, cell-based; conditions: Rattus norvegicus, H9c2, Myocardium;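 also: confirmatory concentration-response retest of ultra-high-throughput screening hits for modulation of myocardial damage; cell death induced by hydrogen peroxide oxidative stress; compound pretreatment for 60 min then peroxide exposure for 2 h; potency is for protecting the cells against peroxide damage rather than for killing them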
HEK293 [9] = assay: inhibition of NOD1-driven NF-kB reporter – cell-based, luminescence, uHTS, primary screen (AID 1578); type: functional; conditions: Homo sapiens
[10] = molecular target: Nucleotide-binding oligomerization domain-containing protein 2 (Homo sapiens, UniProt Q9HC29); assay: inhibition of NOD2-driven NF-kB reporter – cell-based, luminescence, uHTS, HEK293 (AID 1566); type: functional

Structure (SMILES): N#Cc1ccccc1CSc1nc2cc(Br)c[nH]c-2n1
- IC50 [1]: > 100 µM (not active)
- IC50 [2]: > 100 µM (inactive)

Structure (SMILES): O=C(O)c1ncc(-c2ccccc2)cn1
- EC50 (Troponin, cardiac muscle): > 71.5 µM (inactive)

Structure (SMILES): CCc1ccc(NC(=O)NNC(=O)c2cc3ccccc3cc2O)cc1
- IC50 (SUMO-activating enzyme [3]): 11.6 µM (active)
- IC50 (SUMO-activating enzyme [4]): 37.2 µM (active)

Structure (SMILES): Cc1nc(N2CCN(c3ccccn3)CC2)c2c(C)c(C(=O)Nc3ccccc3F)sc2n1
- IC50 (HEK293 [5]): 5.23 µM (active)
- IC50 (HEK293 [6]): > 20 µM (inactive)
- IC50 (HEK293 [7]): 14.3 µM (active)
- IC50 (HEK293 [8]): 5.78 µM (active)
- IC50 (H9c2): > 79 µM (inactive)
- EC50 (HEK293 [9]): 12.4 µM (active)
- EC50 [10]: 3.56 µM (active)
